According to ChEMBL document CHEMBL1201861, “Genomics of Drug Sensitity in Cancer screening data, Wellcome Trust Sanger Institute”:

Columns and labels:
Assay in all cases: cells
Format in all cases: functional, cell-based, Homo sapiens
NCI-H292 = conditions: Homo sapiens, NCI-H292;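 note: growth inhibition of NCI-H292 cells, read out with a cell viability assay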
Description: SANGER: Inhibition of human NCI-H292 cell growth in a cell viability assay.

HGC-27 = conditions: Homo sapiens, HGC-27;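 note: growth inhibition of human HGC-27 cells, read out in a cell viability assay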
Description: SANGER: Inhibition of human HGC-27 cell growth in a cell viability assay.

AGS = conditions: Homo sapiens, AGS;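 note: growth inhibition of AGS cells, determined with a cell viability assay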
Description: SANGER: Inhibition of human AGS cell growth in a cell viability assay.

HCC1395 = conditions: Homo sapiens, HCC1395;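 note: growth inhibition of HCC1395 cells, read out by a cell viability assay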
Description: SANGER: Inhibition of human HCC1395 cell growth in a cell viability assay.

CAKI-1 = conditions: Homo sapiens, CAKI-1;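 note: growth inhibition of CAKI-1 cells, measured by a cell viability assay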
Description: SANGER: Inhibition of human CAKI-1 cell growth in a cell viability assay.

S-117 = conditions: Homo sapiens, S-117
Description: SANGER: Inhibition of human S-117 cell growth in a cell viability assay.

HCT-116 = conditions: Homo sapiens, HCT-116
Description: SANGER: Inhibition of human HCT-116 cell growth in a cell viability assay.

SNU-449 = conditions: Homo sapiens, SNU-449
Description: SANGER: Inhibition of human SNU-449 cell growth in a cell viability assay.

BXPC-3 = conditions: Homo sapiens, BXPC-3;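 note: growth inhibition of human BxPC-3 cells, read out by a cell viability assay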
Description: SANGER: Inhibition of human BxPC-3 cell growth in a cell viability assay.

DBTRG-05MG = conditions: Homo sapiens, DBTRG-05MG;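 note: cell viability assay measuring growth inhibition of human DBTRG-05MG cells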
Description: SANGER: Inhibition of human DBTRG-05MG cell growth in a cell viability assay.

C3A = conditions: Homo sapiens, C3A;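 note: growth inhibition of C3A human cells, quantified with a cell viability readout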
Description: SANGER: Inhibition of human C3A cell growth in a cell viability assay.

HCC1419 = conditions: Homo sapiens, HCC1419;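 note: growth inhibition of human HCC1419 cells, read out as cell viability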
Description: SANGER: Inhibition of human HCC1419 cell growth in a cell viability assay.

Daoy = conditions: Homo sapiens, Daoy;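 note: daoy cell growth inhibition, read out as cell viability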
Description: SANGER: Inhibition of human Daoy cell growth in a cell viability assay.

U-251 = conditions: Homo sapiens, U-251;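 note: growth inhibition of human U-251 cells, read out through a cell viability assay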
Description: SANGER: Inhibition of human U251 cell growth in a cell viability assay.

SCC-4 = conditions: Homo sapiens, SCC-4;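 note: growth inhibition of human SCC-4 cells, read out as cell viability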
Description: SANGER: Inhibition of human SCC-4 cell growth in a cell viability assay.

BPH-1 = conditions: Homo sapiens, BPH-1;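 note: cell viability assay measuring growth inhibition of human BPH-1 cells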
Description: SANGER: Inhibition of human BPH-1 cell growth in a cell viability assay.

EFO-27 = conditions: Homo sapiens, EFO-27;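 note: growth inhibition of EFO-27 cells, read out with a cell viability assay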
Description: SANGER: Inhibition of human EFO-27 cell growth in a cell viability assay.

A-431 = conditions: Homo sapiens, A-431;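 note: growth inhibition of A-431 cells, determined with a cell viability read-out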
Description: SANGER: Inhibition of human A431 cell growth in a cell viability assay.

YAPC = conditions: Homo sapiens, YAPC;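 note: growth inhibition of YAPC cells, measured with a cell viability assay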
Description: SANGER: Inhibition of human YAPC cell growth in a cell viability assay.

YH-13 = conditions: Homo sapiens, YH-13;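 note: cell viability readout of growth suppression in the human YH-13 cell line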
Description: SANGER: Inhibition of human YH-13 cell growth in a cell viability assay.

KYSE-520 cell line = conditions: Homo sapiens, KYSE-520;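 note: growth inhibition of human KYSE-520 cells, read out with a viability assay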
Description: SANGER: Inhibition of human KYSE-520 cell growth in a cell viability assay.

MHH-ES-1 = conditions: Homo sapiens, MHH-ES-1;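 note: cell growth inhibition measured by a cell viability assay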
Description: SANGER: Inhibition of human MHH-ES-1 cell growth in a cell viability assay.

NCI-H2087 = conditions: Homo sapiens, NCI-H2087;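 note: growth inhibition determined with a cell viability readout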
Description: SANGER: Inhibition of human NCI-H2087 cell growth in a cell viability assay.

MDA-MB-231 = conditions: Homo sapiens, MDA-MB-231
Description: SANGER: Inhibition of human MDA-MB-231 cell growth in a cell viability assay.

MDA-MB-175-VII = conditions: Homo sapiens, MDA-MB-175-VII
KOSC-2 = conditions: Homo sapiens, KOSC-2;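 note: growth inhibition of KOSC-2 cells, read out by a cell viability assay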
Description: SANGER: Inhibition of human KOSC-2 cell growth in a cell viability assay.

NCI-H1573 = conditions: Homo sapiens, NCI-H1573;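 note: growth inhibition of NCI-H1573 cells, read out with a cell viability assay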
Description: SANGER: Inhibition of human NCI-H1573 cell growth in a cell viability assay.

PANC-03-27 = conditions: Homo sapiens, PANC-03-27
Description: SANGER: Inhibition of human PANC-03-27 cell growth in a cell viability assay.

KNS-62 = conditions: Homo sapiens, KNS-62;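 note: inhibition of cell growth, read out with a cell viability assay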
Description: SANGER: Inhibition of human KNS-62 cell growth in a cell viability assay.

EGI-1 = conditions: Homo sapiens, EGI-1;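 note: cell viability readout used to gauge growth inhibition of EGI-1 cells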
Description: SANGER: Inhibition of human EGI-1 cell growth in a cell viability assay.

HEC-1 = conditions: Homo sapiens, HEC-1;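 note: growth inhibition of the cell line, read out with a cell viability assay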
Description: SANGER: Inhibition of human HEC-1 cell growth in a cell viability assay.

OC-314 = conditions: Homo sapiens, OC-314
Description: SANGER: Inhibition of human OC-314 cell growth in a cell viability assay.

SNU-423 = conditions: Homo sapiens, SNU-423
Description: SANGER: Inhibition of human SNU-423 cell growth in a cell viability assay.

SK-LU-1 = conditions: Homo sapiens, SK-LU-1;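 note: cell viability assay measuring growth inhibition of human SK-LU-1 cells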
Description: SANGER: Inhibition of human SK-LU-1 cell growth in a cell viability assay.

IGR-1 = conditions: Homo sapiens, IGR-1;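 note: growth inhibition of human IGR-1 cells, read out with a cell viability assay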
Description: SANGER: Inhibition of human IGR-1 cell growth in a cell viability assay.

OVCAR-8 = conditions: Homo sapiens, OVCAR-8;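 note: growth inhibition of human OVCAR-8 cells, read out by a cell viability assay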
Description: SANGER: Inhibition of human OVCAR-8 cell growth in a cell viability assay.

SMILES | IC50 (NCI-H292) [nM] | IC50 (HGC-27) [nM] | IC50 (AGS) [nM] | IC50 (HCC1395) [nM] | IC50 (CAKI-1) [nM] | IC50 (S-117) [nM] | IC50 (HCT-116) [nM] | IC50 (SNU-449) [nM] | IC50 (BXPC-3) [nM] | IC50 (DBTRG-05MG) [nM] | IC50 (C3A) [nM] | IC50 (HCC1419) [nM] | IC50 (Daoy) [nM] | IC50 (U-251) [nM] | IC50 (SCC-4) [nM] | IC50 (BPH-1) [nM] | IC50 (EFO-27) [nM] | IC50 (A-431) [nM] | IC50 (YAPC) [nM] | IC50 (YH-13) [nM] | further results
CCN(CC)CCCCNc1ncc2cc(-c3cc(OC)cc(OC)c3)c(NC(=O)NC(C)(C)C)nc2n1 [PD-173074] | > 2000 | > 2000 | > 2000 | > 2000 | > 2000 | > 2000 | > 2000 | > 2000 | > 2000 | > 2000 | > 2000 | > 2000 | > 2000 | > 2000 | > 2000 | > 2000 | > 2000 | > 2000 | > 2000 | > 2000 | IC50 (KYSE-520 cell line): > 2000 nM; IC50 (MHH-ES-1): > 2000 nM; IC50 (NCI-H2087): > 2000 nM; IC50 (MDA-MB-231): > 2000 nM; IC50 (MDA-MB-175-VII): > 2000 nM; IC50 (KOSC-2): > 2000 nM; IC50 (NCI-H1573): > 2000 nM; IC50 (PANC-03-27): > 2000 nM; IC50 (KNS-62): > 2000 nM; IC50 (EGI-1): > 2000 nM; IC50 (HEC-1): > 2000 nM; IC50 (OC-314): > 2000 nM; IC50 (SNU-423): > 2000 nM; IC50 (SK-LU-1): > 2000 nM; IC50 (IGR-1): > 2000 nM; IC50 (OVCAR-8): > 2000 nM
Cn1cnc2c(F)c(Nc3ccc(Br)cc3Cl)c(C(=O)NOCCO)cc21 [SELUMETINIB] | 1120 | > 4000 | 1120 | > 4000 | > 4000 | > 4000 | 1060 | > 4000 | > 4000 | > 4000 | > 4000 | > 4000 | > 4000 | > 4000 | > 4000 | 182 | 3330 | > 4000 | > 4000 | > 4000 | IC50 (KYSE-520 cell line): > 4000 nM; IC50 (MHH-ES-1): > 4000 nM; IC50 (NCI-H2087): 1380 nM; IC50 (MDA-MB-231): > 4000 nM; IC50 (MDA-MB-175-VII): > 4000 nM; IC50 (KOSC-2): > 4000 nM; IC50 (NCI-H1573): > 4000 nM; IC50 (PANC-03-27): > 4000 nM; IC50 (KNS-62): > 4000 nM; IC50 (EGI-1): 1830 nM; IC50 (HEC-1): > 4000 nM; IC50 (OC-314): > 4000 nM; IC50 (SNU-423): > 4000 nM; IC50 (SK-LU-1): 3860 nM; IC50 (IGR-1): > 4000 nM; IC50 (OVCAR-8): > 4000 nM
CO[C@H]1C[C@@H]2CC[C@@H](C)[C@@](O)(O2)C(=O)C(=O)N2CCCC[C@H]2C(=O)O[C@H]([C@H](C)C[C@@H]2CC[C@@H](OC(=O)C(C)(CO)CO)[C@H](OC)C2)CC(=O)[C@H](C)/C=C(\C)[C@@H](O)[C@@H](OC)C(=O)[C@H](C)C[C@H](C)/C=C/C=C/C=C/1C [TEMSIROLIMUS] | 9.84 | 9.6 | 14.1 | > 200 | 68.7 | 105 | > 200 | > 200 | > 200 | > 200 | > 200 | 25.8 | 51.7 | > 200 | > 200 | 32.4 | 33.1 | > 200 | > 200 | 41.1 | IC50 (KYSE-520 cell line): 139 nM; IC50 (MHH-ES-1): 91.9 nM; IC50 (NCI-H2087): > 200 nM; IC50 (MDA-MB-231): > 200 nM; IC50 (MDA-MB-175-VII): > 200 nM; IC50 (KOSC-2): 167 nM; IC50 (NCI-H1573): > 200 nM; IC50 (PANC-03-27): > 200 nM; IC50 (KNS-62): 50.4 nM; IC50 (EGI-1): 22 nM; IC50 (HEC-1): > 200 nM; IC50 (OC-314): 17.9 nM; IC50 (SNU-423): 173 nM; IC50 (SK-LU-1): 102 nM; IC50 (IGR-1): > 200 nM; IC50 (OVCAR-8): 136 nM
CS(=O)(=O)c1ccc(C(=O)Nc2ccc(Cl)c(-c3ccccn3)c2)c(Cl)c1 [VISMODEGIB] | > 10000 | > 10000 | > 10000 | > 10000 | > 10000 | > 10000 | > 10000 | > 10000 | > 10000 | > 10000 | > 10000 | > 10000 | > 10000 | > 10000 | > 10000 | > 10000 | > 10000 | > 10000 | > 10000 | > 10000 | IC50 (KYSE-520 cell line): > 10000 nM; IC50 (MHH-ES-1): > 10000 nM; IC50 (NCI-H2087): > 10000 nM; IC50 (MDA-MB-231): > 10000 nM; IC50 (MDA-MB-175-VII): > 10000 nM; IC50 (KOSC-2): > 10000 nM; IC50 (NCI-H1573): > 10000 nM; IC50 (PANC-03-27): > 10000 nM; IC50 (KNS-62): > 10000 nM; IC50 (EGI-1): > 10000 nM; IC50 (HEC-1): > 10000 nM; IC50 (OC-314): > 10000 nM; IC50 (SNU-423): > 10000 nM; IC50 (SK-LU-1): > 10000 nM; IC50 (IGR-1): > 10000 nM; IC50 (OVCAR-8): > 10000 nM
